Some results are limits rather than exact numbers.

For one assay, the target named is recombinant human Nav1.7 (Homo sapiens (Human), UniProt Q15858). Kind of assay: FRET-based membrane potential assay, recombinant human sodium channel Nav1.7. In kind it is cell-based. As to conditions: HEK293 cells stably expressing recombinant human Nav1.7; veratridine + scorpion venom depolarization; read-out: FRET-Membrane Potential Nav1.7 IC50. The essentials: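 Channel activation used veratridine at its EC80, set by a dilution curve each experiment, together with Leiurus scorpion venom, added 3 min after compound. Membrane-potential ratio signals from FLIPR Tetra in HEPES-buffered HBSS were fitted to a four-parameter Hill equation for percent inhibition and IC50.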
Chain of recombinant human Nav1.7 (Q15858 whole entry): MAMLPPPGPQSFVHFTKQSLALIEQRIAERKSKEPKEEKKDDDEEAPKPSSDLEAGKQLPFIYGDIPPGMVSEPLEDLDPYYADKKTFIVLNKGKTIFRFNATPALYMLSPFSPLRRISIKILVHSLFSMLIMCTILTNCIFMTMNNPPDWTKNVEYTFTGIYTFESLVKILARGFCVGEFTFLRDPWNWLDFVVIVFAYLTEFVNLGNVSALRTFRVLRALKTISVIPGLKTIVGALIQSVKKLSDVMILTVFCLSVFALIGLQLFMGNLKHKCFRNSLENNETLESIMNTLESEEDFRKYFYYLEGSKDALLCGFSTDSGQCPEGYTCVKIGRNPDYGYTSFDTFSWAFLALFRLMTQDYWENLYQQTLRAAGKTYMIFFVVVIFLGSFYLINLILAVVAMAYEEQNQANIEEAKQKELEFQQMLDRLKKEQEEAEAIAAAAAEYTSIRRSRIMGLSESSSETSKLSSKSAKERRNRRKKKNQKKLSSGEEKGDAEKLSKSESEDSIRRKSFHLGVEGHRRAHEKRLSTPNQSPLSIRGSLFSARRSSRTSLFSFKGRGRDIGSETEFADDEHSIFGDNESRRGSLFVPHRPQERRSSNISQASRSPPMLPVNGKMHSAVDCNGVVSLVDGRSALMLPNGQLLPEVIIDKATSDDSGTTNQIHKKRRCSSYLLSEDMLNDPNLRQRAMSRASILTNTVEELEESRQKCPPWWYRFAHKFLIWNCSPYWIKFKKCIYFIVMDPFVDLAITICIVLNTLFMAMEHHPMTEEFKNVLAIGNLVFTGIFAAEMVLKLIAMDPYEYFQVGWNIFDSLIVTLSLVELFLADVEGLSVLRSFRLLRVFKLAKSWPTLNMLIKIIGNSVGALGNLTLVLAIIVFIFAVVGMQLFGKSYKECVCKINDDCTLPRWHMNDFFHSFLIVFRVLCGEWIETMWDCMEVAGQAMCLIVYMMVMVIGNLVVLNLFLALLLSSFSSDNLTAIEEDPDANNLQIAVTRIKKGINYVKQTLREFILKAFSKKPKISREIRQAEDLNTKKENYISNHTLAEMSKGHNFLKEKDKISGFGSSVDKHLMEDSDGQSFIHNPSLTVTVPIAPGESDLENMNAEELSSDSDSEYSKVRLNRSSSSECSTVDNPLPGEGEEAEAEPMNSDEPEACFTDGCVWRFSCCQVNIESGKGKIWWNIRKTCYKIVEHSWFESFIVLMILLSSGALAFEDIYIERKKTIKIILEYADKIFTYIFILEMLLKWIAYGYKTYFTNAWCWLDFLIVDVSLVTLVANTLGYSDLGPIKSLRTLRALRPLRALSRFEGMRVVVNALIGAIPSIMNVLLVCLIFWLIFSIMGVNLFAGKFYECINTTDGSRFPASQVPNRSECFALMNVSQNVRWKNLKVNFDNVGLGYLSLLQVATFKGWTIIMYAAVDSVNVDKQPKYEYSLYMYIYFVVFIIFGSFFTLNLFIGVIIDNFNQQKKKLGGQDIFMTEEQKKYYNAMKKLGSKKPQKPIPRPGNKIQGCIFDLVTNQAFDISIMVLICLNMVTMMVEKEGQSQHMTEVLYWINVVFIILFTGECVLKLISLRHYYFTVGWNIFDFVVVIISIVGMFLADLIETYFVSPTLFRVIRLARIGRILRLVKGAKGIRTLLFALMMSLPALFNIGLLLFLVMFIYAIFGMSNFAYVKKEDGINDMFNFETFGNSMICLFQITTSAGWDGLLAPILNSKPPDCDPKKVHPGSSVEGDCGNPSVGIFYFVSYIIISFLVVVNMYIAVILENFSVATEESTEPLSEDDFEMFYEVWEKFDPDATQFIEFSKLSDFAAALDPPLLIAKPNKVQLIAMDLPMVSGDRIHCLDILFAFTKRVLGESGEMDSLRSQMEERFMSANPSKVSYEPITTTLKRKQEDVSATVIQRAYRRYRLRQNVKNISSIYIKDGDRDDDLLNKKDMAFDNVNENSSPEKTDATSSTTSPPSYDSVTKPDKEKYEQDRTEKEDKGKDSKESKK
For orientation: IC50 means the concentration at which inhibition is half-maximal. In the case of `O=C(NC1CNC1)c1ccc2cc(Oc3ccc(C(F)(F)F)cn3)ccc2n1` [Example 216, N-(azetidin-3-yl)-6-{[5-(trifluoromethyl)pyridin-2-yl]oxy}quinoline-2-carboxamide], the IC50 was found to be 1670 nM. Still for that read-out and setting: then `O=C(c1ccc2cc(Oc3ccc(C(F)(F)F)cn3)ccc2n1)N1CC(c2cccnc2)C1` [Example 217, [3-(pyridin-3-yl)azetidin-1-yl](6-{[5-(trifluoromethyl)pyridin-2-yl]oxy}quinolin-2-yl)methanone], with 1040 nM. Take `CC(=O)N1CCN(C(=O)c2ccc3cc(Oc4ccc(C(F)(F)F)cn4)ccc3n2)CC1` [Example 218, 1-{4-[(6-{[5-(trifluoromethyl)pyridin-2-yl]oxy}quinolin-2-yl)carbonyl]piperazin-1-yl}ethanone]: the IC50 is more than 20000 nM. Take `O=C(c1ccc2cc(Oc3ccc(C(F)(F)F)cn3)ccc2n1)N1CC=CC1` [Example 220, 2,5-dihydro-1H-pyrrol-1-yl(6-{[5-(trifluoromethyl)pyridin-2-yl]oxy}quinolin-2-yl)methanone]: the IC50 worked out at 2000 nM. On the same count and under the same terms, then `O=C(c1ccc2cc(Oc3ccc(C(F)(F)F)cn3)ccc2n1)N1CCc2ccncc2C1` [Example 222, 3,4-dihydro-2,7-naphthyridin-2(1H)-yl(6-{[5-(trifluoromethyl)pyridin-2-yl]oxy}quinolin-2-yl)methanone], with 2150 nM; and `O=C(c1ccc2cc(Oc3ccc(C(F)(F)F)cn3)ccc2n1)N1C[C@@H](O)C[C@@H]1c1cc(F)ccc1F` [Example 223, [(2R,4S)-2-(2,5-difluorophenyl)-4-hydroxypyrrolidin-1-yl](6-{[5-(trifluoromethyl)pyridin-2-yl]oxy}quinolin-2-yl)methanone], with 2790 nM; and `O=C(c1ccc2cc(Oc3ccc(C(F)(F)F)cn3)ccc2n1)N1CC[C@H](NS(=O)(=O)c2ccc(C(F)(F)F)cc2)[C@H]1c1ccccc1` [Example 225, N-{(2R,3S)-2-phenyl-1-[(6-{[5-(trifluoromethyl)pyridin-2-yl]oxy}quinolin-2-yl)carbonyl]pyrrolidin-3-yl}-4-(trifluoromethyl)benzenesulfonamide], with more than 20000 nM. On the same count and under the same terms, next, `CC(=O)c1ccc(Oc2ccc3nc(C(=O)N4CCNCC4)ccc3c2)nc1` [Example 226, 1-(6-{[2-(piperazin-1-ylcarbonyl)quinolin-6-yl]oxy}pyridin-3-yl)ethanone]: more than 20000 nM; `O=C(c1ccc2cc(Oc3ccc(C(F)(F)F)cn3)ccc2n1)N1CCS(=O)(=O)CC1` [Example 227, (1,1-dioxidothiomorpholin-4-yl)(6-{[5-(trifluoromethyl)pyridin-2-yl]oxy}quinolin-2-yl)methanone]: 2940 nM; `CC(C)(C)N1CCN(C(=O)c2ccc3cc(Oc4ccc(C(F)(F)F)cn4)ccc3n2)CC1` [Example 228, (4-tert-butylpiperazin-1-yl)(6-{[5-(trifluoromethyl)pyridin-2-yl]oxy}quinolin-2-yl)methanone]: 1150 nM. On the same count and under the same terms, next, `O=C(c1ccc2cc(Oc3ccc(C(F)(F)F)cn3)ccc2n1)N1CC2(CCNCC2)C1` [Example 232, 2,7-diazaspiro[3.5]non-2-yl(6-{[5-(trifluoromethyl)pyridin-2-yl]oxy}quinolin-2-yl)methanone]: 17400 nM; `O=C(c1ccc2cc(Oc3ccc(C(F)(F)F)cn3)ccc2n1)N1CCCNC1` [Example 233, tetrahydropyrimidin-1(2H)-yl(6-{[5-(trifluoromethyl)pyridin-2-yl]oxy}quinolin-2-yl)methanone]: 586 nM; `O=C(c1ccc2cc(Oc3ccc(C(F)(F)F)cn3)ccc2n1)N1CCNC[C@H]1CO` [Example 234, [(2S)-2-(hydroxymethyl)piperazin-1-yl](6-{[5-(trifluoromethyl)pyridin-2-yl]oxy}quinolin-2-yl)methanone]: 2870 nM.

Regarding `CNS(=O)(=O)N1CCN(C(=O)c2ccc3cc(Oc4ccc(C(F)(F)F)cn4)ccc3n2)CC1` [Example 235, N-methyl-4-[(6-{[5-(trifluoromethyl)pyridin-2-yl]oxy}quinolin-2-yl)carbonyl]piperazine-1-sulfonamide], the IC50 came out at 2360 nM. The same measure, in the same setting: next, `O=C(c1ccc2cc(Oc3ccc(C(F)(F)F)cn3)ccc2n1)N1CCCCCC1` [Example 238, azepan-1-yl(6-{[5-(trifluoromethyl)pyridin-2-yl]oxy}quinolin-2-yl)methanone]: 1540 nM. Take `CNC(=O)[C@@H]1CCCN1C(=O)c1ccc2cc(Oc3ccc(C(F)(F)F)cn3)ccc2n1` [Example 239, N-methyl-1-[(6-{[5-(trifluoromethyl)pyridin-2-yl]oxy}quinolin-2-yl)carbonyl]-L-prolinamide]: the IC50 was more than 20000 nM.

With `O=C(c1ccc2cc(Oc3ccc(C(F)(F)F)cn3)ccc2n1)N1CCC2(CC1)OCCO2` [Example 240, 1,4-dioxa-8-azaspiro[4.5]dec-8-yl(6-{[5-(trifluoromethyl)pyridin-2-yl]oxy}quinolin-2-yl)methanone], the IC50 was 2010 nM.

Regarding `O=C(c1ccc2cc(Oc3ccc(C(F)(F)F)cn3)ccc2n1)N1C[C@H]2C[C@@H]1CN2` [Example 241, (1R,4R)-2,5-diazabicyclo[2.2.1]hept-2-yl(6-{[5-(trifluoromethyl)pyridin-2-yl]oxy}quinolin-2-yl)methanone], the half-maximal inhibitory concentration (IC50) turned out to be 1850 nM.

On to `O=C(c1ccc2cc(Oc3ncccn3)ccc2n1)N1CCNCC1` [Example 242, piperazin-1-yl[6-(pyrimidin-2-yloxy)quinolin-2-yl]methanone], for which the IC50 was more than 20000 nM. As for `O=C(c1ccc2cc(Oc3ccc(C(F)(F)F)cn3)ccc2n1)N1CCNC[C@@H]1CO` [Example 243, [(2R)-2-(hydroxymethyl)piperazin-1-yl](6-{[5-(trifluoromethyl)pyridin-2-yl]oxy}quinolin-2-yl)methanone], the IC50 was more than 20000 nM. Still for that read-out and setting: then `O=C(c1ccc2cc(Oc3ncc(F)cn3)ccc2n1)N1CCNCC1` [Example 244, {6[(5-fluoropyrimidin-2-yl)oxy]quinolin-2-yl}(piperazin-1-yl)methanone], with more than 20000 nM. As for `O=C(c1ccc2cc(Oc3ccc(C(F)(F)F)nn3)ccc2n1)N1CCNCC1` [Example 246, piperazin-1-yl(6-{[6-(trifluoromethyl)pyridazin-3-yl]oxy}quinolin-2-yl)methanone], the IC50 worked out at 19800 nM. Take `N[C@H]1CC[C@@H]2CN(C(=O)c3ccc4cc(Oc5ccc(C(F)(F)F)cn5)ccc4n3)C[C@@H]21` [Example 248, [(3aR,4S,6aS)-4-aminohexahydrocyclopenta[c]pyrrol-2(1H)-yl](6-{[5-(trifluoromethyl)pyridin-2-yl]oxy}quinolin-2-yl)methanone]: the 50% inhibitory concentration (IC50) stood at 17300 nM.

For the compound `O=C(c1ccc2cc(Oc3ccc(C(F)(F)F)cn3)ccc2n1)N1CCN(C2COC2)CC1` [Example 252, [4-(oxetan-3-yl)piperazin-1-yl](6-{[5-(trifluoromethyl)pyridin-2-yl]oxy}quinolin-2-yl)methanone], the IC50 is more than 20000 nM.

Still in this assay, the particulars now being: read-out: FRET-Membrane Potential Nav1.7 IC50.
As to `O=C(c1ccc2cc(Oc3ccc(C(F)(F)F)cn3)ccc2n1)N1CCSCC1` [Example 221, thiomorpholin-4-yl(6-{[5-(trifluoromethyl)pyridin-2-yl]oxy}quinolin-2-yl)methanone], the IC50 came out at 2790 nM. Still for that read-out and setting: next, `O=C(c1ccc2cc(Oc3ccc(C(F)(F)F)cn3)ccc2n1)N1CCCC1c1ccc(C(F)(F)F)cc1` (stereo not shown) [Example 224, {2-[4-(trifluoromethyl)phenyl]pyrrolidin-1-yl}(6-{[5-(trifluoromethyl)pyridin-2-yl]oxy}quinolin-2-yl)methanone]: more than 20000 nM; `O=C(N[C@@H]1CC[C@H]2CN(Cc3ccccc3)C[C@H]21)c1ccc2cc(Oc3ccc(C(F)(F)F)cn3)ccc2n1` [Example 230, N-[(3aS,4R,6aR)-2-benzyloctahydrocyclopenta[c]pyrrol-4-yl]-6-{[5-(trifluoromethyl)pyridin-2-yl]oxy}quinoline-2-carboxamide]: 259 nM. As to `CC(C)N1CCN(C(=O)c2ccc3cc(Oc4ccc(C(F)(F)F)cn4)ccc3n2)CC1` [Example 231, (4-isopropylpiperazin-1-yl)(6-{[5-(trifluoromethyl)pyridin-2-yl]oxy}quinolin-2-yl)methanone], the IC50 is 783 nM.

Regarding `CCNS(=O)(=O)N1CCN(C(=O)c2ccc3cc(Oc4ccc(C(F)(F)F)cn4)ccc3n2)CC1` [Example 236, N-ethyl-4-[(6-{[5-(trifluoromethyl)pyridin-2-yl]oxy}quinolin-2-yl)carbonyl]piperazine-1-sulfonamide], the IC50 stood at 1010 nM. As to `O=C(c1ccc2cc(Oc3ccc(C(F)(F)F)cn3)ccc2n1)N1CCC[C@H]1CO` [Example 237, [(2S)-2-(hydroxymethyl)pyrrolidin-1-yl](6-{[5-(trifluoromethyl)pyridin-2-yl]oxy}quinolin-2-yl)methanone], the IC50 was 3070 nM. With `O=C(c1ccc2cc(Oc3cnc(C(F)(F)F)cn3)ccc2n1)N1CCNCC1` [Example 245, piperazin-1-yl(6-{[5-(trifluoromethyl)pyrazin-2-yl]oxy}quinolin-2-yl)methanone], the IC50 came to 4630 nM. As for `O=C(c1ccc2cc(Oc3ncc(C(F)(F)F)cn3)ccc2n1)N1CCNCC1` [Example 247, piperazin-1-yl(6-{[5-(trifluoromethyl)pyrimidin-2-yl]oxy}quinolin-2-yl)methanone], the half-maximal inhibitory concentration (IC50) came to 13300 nM. On the same count and under the same terms, then `O=C(c1ccc2cc(Oc3ccc(C(F)(F)F)cc3)ccc2n1)N1CCNCC1` [Example 249, piperazin-1-yl {6-[4-(trifluoromethyl)phenoxy]quinolin-2-yl}methanone], with 902 nM; and `O=C(c1ccc2cc(Oc3ncc(C(F)(F)F)cc3F)ccc2n1)N1CCNCC1` [Example 250, (6-{[3-fluoro-5-(trifluoromethyl)pyridin-2-yl]oxy}quinolin-2-yl)(piperazin-1-yl)methanone], with 1390 nM.

The record behind these values is patent US9452986B2, “6-heteroaryloxy- or 6-aryloxy-quinoline-2-carboxamides and method of use” (AbbVie Inc., priority 2014, dated 2016).
